Earlier results on two substances are cited in patent US20050008633A1, “Chemical and physical modulators of bioavailability of inhaled compositions” (Advanced Inhalation Research Inc., priority 2003, published 2005).

Series [1] deals with rat alveolar epithelial cell monolayers. Conditions: rat pneumocyte monolayers.
The conditions of series [2]: intratracheal instillation in animals, absorption over many hours.

For the substance “F-Alb: fluorescein isothiocyanate (FITC)-labeled bovine serum albumin”, the “Jmax (i.e., maximum flux)” value in series [1] (net absorption of intact F-Alb) is recorded as about 0.15 fmol.cm^−2.s^−1. In addition, the “Kt (i.e., K(1)) of net absorption of intact F-Alb” value in series [1] (simple saturable process) is about 1.6 µM.
As for immunoglobulin G, the bioavailability result in series [2] is on record as “lower than 5%”.
